A short description of the data set: pKa of lipid. The format is physicochemical.

Drawing on patent publication US9687550B2, “Compositions for nucleic acid delivery” (Arbutus Biopharma Corporation, priority 2009, dated 2017), this text covers pKa for one compound.

As for `CCCCCCCCCCCCCCCCCCC(CCCCCCCCCCCCCCCCCC)OC(=O)CCCN(C)C` [compound 111], the pKa was greater than 7.4.

By pKa is commonly meant the pH at which an ionisable group is half protonated. A high value points to a weaker acid or stronger base.
